Like-named read-outs stand apart in the source and are kept apart here.
Tests used:
Assay in all cases: selectivity profiling in a panel of 340 wild-type kinases (Reaction Biology Europe)
Format in all cases: binding
340 wild-type kinases [1] = target: T1, 340 wild-type kinases (Homo sapiens, UniProt Q9BXA7)
T1 construct: purchased Reaction Biology Europe
T1 sequence (Q9BXA7 1-367): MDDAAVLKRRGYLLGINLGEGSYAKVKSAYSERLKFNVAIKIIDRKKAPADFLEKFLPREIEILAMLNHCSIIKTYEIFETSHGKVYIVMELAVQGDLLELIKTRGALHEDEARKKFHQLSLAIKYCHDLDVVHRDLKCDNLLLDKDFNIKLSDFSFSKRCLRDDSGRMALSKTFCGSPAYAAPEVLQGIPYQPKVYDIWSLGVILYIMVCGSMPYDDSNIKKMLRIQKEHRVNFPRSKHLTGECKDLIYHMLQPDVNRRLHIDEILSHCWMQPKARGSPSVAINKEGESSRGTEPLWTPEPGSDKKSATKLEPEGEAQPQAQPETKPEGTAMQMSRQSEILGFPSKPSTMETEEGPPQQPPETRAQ

340 wild-type kinases [2] = target: T2, 340 wild-type kinases (Homo sapiens, UniProt P17252)
T2 construct: purchased Reaction Biology Europe

340 wild-type kinases [3] = target: T3, 340 wild-type kinases (Homo sapiens, UniProt P80192)
T3 construct: purchased Reaction Biology Europe

340 wild-type kinases [4] = target: T4, 340 wild-type kinases (Homo sapiens, UniProt Q8WTQ7)
T4 construct: purchased Reaction Biology Europe
T4 sequence (Q8WTQ7 1-553): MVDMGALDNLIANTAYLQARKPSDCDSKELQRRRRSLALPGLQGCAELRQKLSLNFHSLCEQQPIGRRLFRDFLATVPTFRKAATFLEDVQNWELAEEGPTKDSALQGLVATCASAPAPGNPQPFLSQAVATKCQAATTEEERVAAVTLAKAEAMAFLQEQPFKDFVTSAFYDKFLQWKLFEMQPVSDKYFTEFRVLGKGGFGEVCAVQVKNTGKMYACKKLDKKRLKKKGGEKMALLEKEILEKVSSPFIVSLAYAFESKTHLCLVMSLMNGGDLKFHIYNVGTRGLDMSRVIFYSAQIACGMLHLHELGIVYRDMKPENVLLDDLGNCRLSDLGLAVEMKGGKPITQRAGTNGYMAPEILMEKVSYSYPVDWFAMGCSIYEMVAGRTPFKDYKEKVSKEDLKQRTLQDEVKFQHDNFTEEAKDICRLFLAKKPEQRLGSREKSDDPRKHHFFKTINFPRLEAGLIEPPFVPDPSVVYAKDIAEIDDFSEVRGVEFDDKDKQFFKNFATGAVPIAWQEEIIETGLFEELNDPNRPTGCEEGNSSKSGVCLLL

340 wild-type kinases [5] = target: T5, 340 wild-type kinases (Homo sapiens, UniProt O00141)
T5 construct: purchased Reaction Biology Europe
T5 sequence (O00141 1-431): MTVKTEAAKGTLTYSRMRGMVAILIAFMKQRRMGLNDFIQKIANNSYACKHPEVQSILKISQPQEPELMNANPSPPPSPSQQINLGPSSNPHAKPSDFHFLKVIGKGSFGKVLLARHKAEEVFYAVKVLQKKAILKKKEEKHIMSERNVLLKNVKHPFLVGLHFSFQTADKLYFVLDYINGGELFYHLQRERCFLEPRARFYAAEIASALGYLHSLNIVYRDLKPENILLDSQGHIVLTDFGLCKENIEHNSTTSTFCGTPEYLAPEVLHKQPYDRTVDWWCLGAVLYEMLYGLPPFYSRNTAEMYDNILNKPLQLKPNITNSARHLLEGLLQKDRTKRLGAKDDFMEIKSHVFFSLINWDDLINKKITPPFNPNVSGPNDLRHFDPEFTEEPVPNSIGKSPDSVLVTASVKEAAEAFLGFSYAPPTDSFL

340 wild-type kinases [6] = target: T6, 340 wild-type kinases (Homo sapiens, UniProt Q5TCX8)
T6 construct: purchased Reaction Biology Europe

340 wild-type kinases [7] = target: T7, 340 wild-type kinases (Homo sapiens, UniProt P19784)
T7 construct: purchased Reaction Biology Europe

340 wild-type kinases [8] = target: T8, 340 wild-type kinases (Homo sapiens, UniProt Q9H0K1)
T8 construct: purchased Reaction Biology Europe

340 wild-type kinases [9] = target: T9, 340 wild-type kinases (Homo sapiens, UniProt Q13554)
T9 construct: purchased Reaction Biology Europe

340 wild-type kinases [10] = target: T10, 340 wild-type kinases (Homo sapiens, UniProt Q9P1W9)
T10 construct: purchased Reaction Biology Europe
T10 sequence (Q9P1W9 whole entry): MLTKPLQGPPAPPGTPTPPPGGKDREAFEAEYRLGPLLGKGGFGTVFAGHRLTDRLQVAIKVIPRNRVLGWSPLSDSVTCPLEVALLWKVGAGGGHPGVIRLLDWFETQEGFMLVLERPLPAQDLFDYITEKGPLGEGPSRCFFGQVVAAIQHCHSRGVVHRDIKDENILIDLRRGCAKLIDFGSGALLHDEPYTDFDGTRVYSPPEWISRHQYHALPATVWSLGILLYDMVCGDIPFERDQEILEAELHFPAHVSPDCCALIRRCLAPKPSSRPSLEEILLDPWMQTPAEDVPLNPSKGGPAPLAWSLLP

T7 sequence (P19784 whole entry): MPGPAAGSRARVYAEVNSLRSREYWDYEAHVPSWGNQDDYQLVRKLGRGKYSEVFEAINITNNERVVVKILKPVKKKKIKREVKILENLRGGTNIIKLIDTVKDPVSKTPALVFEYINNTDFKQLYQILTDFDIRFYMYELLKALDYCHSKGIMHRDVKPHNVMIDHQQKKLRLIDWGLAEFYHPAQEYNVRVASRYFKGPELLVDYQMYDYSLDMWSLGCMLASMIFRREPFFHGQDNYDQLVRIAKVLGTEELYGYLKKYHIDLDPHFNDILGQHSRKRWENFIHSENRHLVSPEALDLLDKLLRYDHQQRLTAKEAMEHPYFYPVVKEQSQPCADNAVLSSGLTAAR
T3 sequence (P80192 whole entry): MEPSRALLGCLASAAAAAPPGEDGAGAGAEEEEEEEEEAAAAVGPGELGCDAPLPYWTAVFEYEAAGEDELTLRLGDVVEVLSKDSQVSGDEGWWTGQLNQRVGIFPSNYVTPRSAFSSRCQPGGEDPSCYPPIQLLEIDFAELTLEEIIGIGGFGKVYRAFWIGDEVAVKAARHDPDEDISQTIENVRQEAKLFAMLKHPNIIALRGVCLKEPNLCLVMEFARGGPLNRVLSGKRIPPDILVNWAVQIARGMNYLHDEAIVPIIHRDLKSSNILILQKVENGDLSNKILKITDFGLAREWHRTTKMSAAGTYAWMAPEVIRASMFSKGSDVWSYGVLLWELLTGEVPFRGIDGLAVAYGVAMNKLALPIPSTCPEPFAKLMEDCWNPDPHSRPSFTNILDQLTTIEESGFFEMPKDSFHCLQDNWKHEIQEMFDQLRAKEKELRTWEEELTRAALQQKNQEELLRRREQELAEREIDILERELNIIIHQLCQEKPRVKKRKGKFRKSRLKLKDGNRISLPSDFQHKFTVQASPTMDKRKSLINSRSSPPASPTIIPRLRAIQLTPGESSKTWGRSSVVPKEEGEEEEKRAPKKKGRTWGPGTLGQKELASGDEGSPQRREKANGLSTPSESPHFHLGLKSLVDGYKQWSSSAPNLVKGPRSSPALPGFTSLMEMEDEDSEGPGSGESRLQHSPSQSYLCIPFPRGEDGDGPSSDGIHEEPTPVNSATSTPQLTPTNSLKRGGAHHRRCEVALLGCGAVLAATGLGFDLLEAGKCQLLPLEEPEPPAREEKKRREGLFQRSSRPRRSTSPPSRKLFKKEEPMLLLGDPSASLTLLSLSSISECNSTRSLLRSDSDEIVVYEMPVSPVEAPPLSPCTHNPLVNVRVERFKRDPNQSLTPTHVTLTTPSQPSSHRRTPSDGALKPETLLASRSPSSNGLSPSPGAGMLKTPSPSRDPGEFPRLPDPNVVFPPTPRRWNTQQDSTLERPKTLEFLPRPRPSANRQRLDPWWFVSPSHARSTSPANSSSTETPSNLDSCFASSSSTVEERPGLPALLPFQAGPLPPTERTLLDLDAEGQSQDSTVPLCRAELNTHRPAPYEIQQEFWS
T8 sequence (Q9H0K1 whole entry): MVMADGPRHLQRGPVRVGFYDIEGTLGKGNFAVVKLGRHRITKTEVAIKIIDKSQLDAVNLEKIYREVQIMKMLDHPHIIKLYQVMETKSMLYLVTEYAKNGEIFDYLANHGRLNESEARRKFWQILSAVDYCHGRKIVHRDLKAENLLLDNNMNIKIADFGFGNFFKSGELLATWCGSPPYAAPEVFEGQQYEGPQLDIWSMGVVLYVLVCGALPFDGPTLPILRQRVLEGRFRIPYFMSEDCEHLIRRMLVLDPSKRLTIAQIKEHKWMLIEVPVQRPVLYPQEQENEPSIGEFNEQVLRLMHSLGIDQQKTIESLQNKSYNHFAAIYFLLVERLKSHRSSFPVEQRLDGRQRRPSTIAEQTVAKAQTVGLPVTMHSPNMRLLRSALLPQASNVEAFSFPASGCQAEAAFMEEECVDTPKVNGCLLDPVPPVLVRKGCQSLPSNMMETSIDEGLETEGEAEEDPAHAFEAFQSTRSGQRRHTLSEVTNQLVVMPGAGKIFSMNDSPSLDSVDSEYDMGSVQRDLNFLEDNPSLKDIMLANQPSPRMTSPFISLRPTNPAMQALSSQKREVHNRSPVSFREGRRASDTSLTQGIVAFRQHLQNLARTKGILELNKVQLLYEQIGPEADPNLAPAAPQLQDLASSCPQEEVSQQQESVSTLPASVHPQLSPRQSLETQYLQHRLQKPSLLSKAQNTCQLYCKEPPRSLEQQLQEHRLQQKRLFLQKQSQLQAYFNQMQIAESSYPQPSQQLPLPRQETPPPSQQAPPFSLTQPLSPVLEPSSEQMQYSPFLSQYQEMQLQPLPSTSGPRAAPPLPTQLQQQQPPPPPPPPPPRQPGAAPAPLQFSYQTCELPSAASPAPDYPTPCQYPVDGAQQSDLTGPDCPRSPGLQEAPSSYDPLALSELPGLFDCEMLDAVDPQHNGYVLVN
T9 sequence (Q13554 whole entry): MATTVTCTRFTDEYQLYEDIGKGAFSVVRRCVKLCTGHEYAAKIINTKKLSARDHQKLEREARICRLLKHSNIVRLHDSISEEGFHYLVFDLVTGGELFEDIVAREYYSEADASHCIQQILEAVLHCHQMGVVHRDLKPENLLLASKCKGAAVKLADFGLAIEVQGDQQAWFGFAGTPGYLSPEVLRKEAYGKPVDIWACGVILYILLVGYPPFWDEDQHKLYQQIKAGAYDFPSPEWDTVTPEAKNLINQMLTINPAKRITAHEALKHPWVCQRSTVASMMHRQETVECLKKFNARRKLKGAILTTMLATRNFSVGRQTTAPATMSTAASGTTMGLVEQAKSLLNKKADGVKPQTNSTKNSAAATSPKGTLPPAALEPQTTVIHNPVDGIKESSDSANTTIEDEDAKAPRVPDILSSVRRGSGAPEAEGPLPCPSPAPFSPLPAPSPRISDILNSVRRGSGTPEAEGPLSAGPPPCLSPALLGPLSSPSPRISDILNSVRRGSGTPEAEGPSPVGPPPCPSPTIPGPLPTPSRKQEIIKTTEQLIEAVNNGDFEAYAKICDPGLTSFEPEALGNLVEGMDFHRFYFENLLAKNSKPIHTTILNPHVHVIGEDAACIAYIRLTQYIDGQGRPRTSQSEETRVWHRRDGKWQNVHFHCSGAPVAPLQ
T6 sequence (Q5TCX8 whole entry): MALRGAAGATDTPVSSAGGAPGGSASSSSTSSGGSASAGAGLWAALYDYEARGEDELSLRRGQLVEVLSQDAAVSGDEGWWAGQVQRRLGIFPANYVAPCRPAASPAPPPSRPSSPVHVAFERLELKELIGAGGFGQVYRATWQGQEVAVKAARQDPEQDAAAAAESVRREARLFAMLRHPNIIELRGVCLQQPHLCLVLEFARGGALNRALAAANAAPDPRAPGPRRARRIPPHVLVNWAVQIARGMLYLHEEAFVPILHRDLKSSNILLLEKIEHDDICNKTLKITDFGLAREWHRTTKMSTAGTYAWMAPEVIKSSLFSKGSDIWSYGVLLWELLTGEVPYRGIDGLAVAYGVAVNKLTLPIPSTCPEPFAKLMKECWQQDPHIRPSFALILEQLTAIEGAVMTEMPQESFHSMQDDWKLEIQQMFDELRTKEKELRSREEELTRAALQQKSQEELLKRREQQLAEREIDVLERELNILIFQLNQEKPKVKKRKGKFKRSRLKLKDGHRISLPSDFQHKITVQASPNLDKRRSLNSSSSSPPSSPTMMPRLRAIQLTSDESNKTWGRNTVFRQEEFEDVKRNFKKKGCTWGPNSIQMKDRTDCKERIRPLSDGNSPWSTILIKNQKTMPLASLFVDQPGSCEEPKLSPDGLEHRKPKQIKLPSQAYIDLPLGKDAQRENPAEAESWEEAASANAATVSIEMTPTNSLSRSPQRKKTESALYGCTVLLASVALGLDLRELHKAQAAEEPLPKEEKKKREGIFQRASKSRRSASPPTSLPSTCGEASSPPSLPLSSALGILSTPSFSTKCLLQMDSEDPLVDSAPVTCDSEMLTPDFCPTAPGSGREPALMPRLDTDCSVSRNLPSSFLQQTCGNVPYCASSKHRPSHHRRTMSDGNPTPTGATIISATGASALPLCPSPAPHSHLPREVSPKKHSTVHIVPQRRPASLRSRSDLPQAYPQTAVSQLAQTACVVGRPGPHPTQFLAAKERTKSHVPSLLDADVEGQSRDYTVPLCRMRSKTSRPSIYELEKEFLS

`CNC(=O)c1ccc2c(c1)C(=O)c1ccc(Nc3ccc(F)c(NC(=O)C4CC4)c3)cc1CC2` [Compound 2015] was tested, and the remaining activity at 0.2 µM (340 wild-type kinases [1]; 0.2 µM 2015, read-out: TSSK1 residual activity) was 125%, the remaining activity at 1 µM (340 wild-type kinases [1]; 1 µM 2015, read-out: TSSK1 residual activity) was 106% and the remaining activity at 0.2 µM (340 wild-type kinases [1]; TSSK1, 0.2 µM, read-out: residual activity) was 125%. The remaining activity at 1 µM (340 wild-type kinases [1]; TSSK1, 1 µM, read-out: residual activity) was 106%, the remaining activity at 0.2 µM (340 wild-type kinases [2]; 0.2 µM 2015, read-out: PKCalpha residual activity) was 118% and the remaining activity at 1 µM (340 wild-type kinases [2]; 1 µM 2015, read-out: PKCalpha residual activity) was 98.8%. It also gave a remaining activity at 0.2 µM (340 wild-type kinases [2]; PKCalpha, 0.2 µM, read-out: residual activity) of 118%, a remaining activity at 1 µM (340 wild-type kinases [2]; PKCalpha, 1 µM, read-out: residual activity) of 98.8% and a remaining activity at 0.2 µM (340 wild-type kinases [3]; 0.2 µM 2015, read-out: MAP3K9 residual activity) of 114%. For the same compound, the remaining activity at 1 µM (340 wild-type kinases [3]; 1 µM 2015, read-out: MAP3K9 residual activity) was 96.4%, the remaining activity at 0.2 µM (340 wild-type kinases [3]; MAP3K9, 0.2 µM, read-out: residual activity) was 114% and the remaining activity at 1 µM (340 wild-type kinases [3]; MAP3K9, 1 µM, read-out: residual activity) was 96.4%. For the same compound, the remaining activity at 0.2 µM (340 wild-type kinases [4]; 0.2 µM 2015, read-out: GRK7 residual activity) was 123%, the remaining activity at 1 µM (340 wild-type kinases [4]; 1 µM 2015, read-out: GRK7 residual activity) was 106% and the remaining activity at 0.2 µM (340 wild-type kinases [4]; GRK7, 0.2 µM, read-out: residual activity) was 123%. It also gave a remaining activity at 1 µM (340 wild-type kinases [4]; GRK7, 1 µM, read-out: residual activity) of 106%, a remaining activity at 0.2 µM (340 wild-type kinases [5]; 0.2 µM 2015, read-out: SGK1 residual activity) of 95.9% and a remaining activity at 1 µM (340 wild-type kinases [5]; 1 µM 2015, read-out: SGK1 residual activity) of 91.4%. The remaining activity at 0.2 µM (340 wild-type kinases [5]; SGK1, 0.2 µM, read-out: residual activity) was 95.8%, the remaining activity at 1 µM (340 wild-type kinases [5]; SGK1, 1 µM, read-out: residual activity) was 91.4% and the remaining activity at 0.2 µM (340 wild-type kinases [6]; 0.2 µM 2015, read-out: MLK4 residual activity) was 96.4%. The remaining activity at 1 µM (340 wild-type kinases [6]; 1 µM 2015, read-out: MLK4 residual activity) was 87.1%, the remaining activity at 0.2 µM (340 wild-type kinases [6]; MLK4, 0.2 µM, read-out: residual activity) was 96.4% and the remaining activity at 1 µM (340 wild-type kinases [6]; MLK4, 1 µM, read-out: residual activity) was 87.1%. For the same compound, the remaining activity at 0.2 µM (340 wild-type kinases [7]; 0.2 µM 2015, read-out: CK2alpha2 residual activity) was 102%, the remaining activity at 1 µM (340 wild-type kinases [7]; 1 µM 2015, read-out: CK2alpha2 residual activity) was 97.2% and the remaining activity at 0.2 µM (340 wild-type kinases [7]; CK2alpha2, 0.2 µM, read-out: residual activity) was 102%. It also gave a remaining activity at 1 µM (340 wild-type kinases [7]; CK2alpha2, 1 µM, read-out: residual activity) of 97.2%, a remaining activity at 0.2 µM (340 wild-type kinases [8]; 0.2 µM 2015, read-out: SIK2 residual activity) of 101% and a remaining activity at 1 µM (340 wild-type kinases [8]; 1 µM 2015, read-out: SIK2 residual activity) of 98.1%. For the same compound, the remaining activity at 0.2 µM (340 wild-type kinases [8]; SIK2, 0.2 µM, read-out: residual activity) was 101%, the remaining activity at 1 µM (340 wild-type kinases [8]; SIK2, 1 µM, read-out: residual activity) was 98.1% and the remaining activity at 0.2 µM (340 wild-type kinases [9]; 0.2 µM 2015, read-out: CAMK2B residual activity) was 112%. It also gave a remaining activity at 1 µM (340 wild-type kinases [9]; 1 µM 2015, read-out: CAMK2B residual activity) of 89%, a remaining activity at 0.2 µM (340 wild-type kinases [9]; CAMK2B, 0.2 µM, read-out: residual activity) of 112% and a remaining activity at 1 µM (340 wild-type kinases [9]; CAMK2B, 1 µM, read-out: residual activity) of 89%. The remaining activity at 0.2 µM (340 wild-type kinases [10]; 0.2 µM 2015, read-out: PIM2 residual activity) was 119%, the remaining activity at 1 µM (340 wild-type kinases [10]; 1 µM 2015, read-out: PIM2 residual activity) was 98.6% and the remaining activity at 0.2 µM (340 wild-type kinases [10]; PIM2, 0.2 µM, read-out: residual activity) was 119%. For the same compound, the remaining activity at 1 µM (340 wild-type kinases [10]; PIM2, 1 µM, read-out: residual activity) was 98.6%.
